Like-named read-outs stand apart in the source and are kept apart here.
Tests used:
HCT-8 host cells = assay: Toxicity to HCT-8 host cells seen in the C. parvum assay; type: cell-based; conditions: no reliable C. parvum EC50 could be determined
Method: Growth inhibition and EC50 determination assays were performed using UGA1 Nluc expressing C. parvum strain in HCT-8 cells (ATCC^©, Manassas, VA) as previously described. HCT-8 cells were inoculated onto 96-well plates and allowed to grow for 48 hours to 90–100% confluence and then treated with single concentration (10 μM) or serially diluted compounds prior to oocyst infection. C. parvum oocysts were incubated for 10 minutes in 10% bleach at room temperature and then washed with DPBS. One thousand oocysts per well were applied to the 96 well plates with RPMI-1640 medium supplemented with 10% horse serum and 1% penicillin/streptomycin at the same time as compound addition and incubated for 48 hours. The cell monolayers were lysed for 1 hour before adding Nano-Glo® luciferase reagent (Promega, Madison, WI), and measuring relative luminescence units (RLU) in an EnVision Plate Reader (Perkin Elmer, Waltham, MA). Several parameters, including reproducibility and reliability, were previously evaluated to optimize this assay for low and high-throughput (HTP) screening of small molecule compounds against C. parvum. EC50 values were calculated using Prism 7 software (GraphPad Software, San Diego, CA).

[1] = tested on: G. lamblia trophozoites (luciferase expressing, WBC6); assay: microbe, parasite or virus in culture; type: cell-based, Giardia lamblia
In short: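 Incubation ran 24 h at 37 °C under anaerobic conditions, with compound added in equal volume to trophozoites (WBC6, luciferase-expressing, 250,000 cells/mL). Bioluminescence was the read-out, cross-checked by MOXI Z counts on a duplicate plate; metronidazole served as control (1:2 dilutions from 40 μM).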

HepG2 cells [2] = conditions: ref Pathogen_Box_Activity_Biological_Data_ Structure & Smiles (https://www.pathogenbox.org/about-pathogen-box/composition); read-out: HepG2 CC50 (literature values); cited from earlier work
HepG2 cells [3] = assay: Cytotoxicity against HepG2 cells, AlamarBlue viability assay, 48 hours; type: cell-based, human; conditions: read-out: HepG2 CC50 (this study)
Description: Mammalian cell cytotoxicity assay data performed on HepG2 (human hepatocellular carcinoma) cells and described as CC20 or CC50 values are provided in supporting documentation that accompanied the Pathogen Box for approximately three quarters of the 400 compounds. However, no details of the assay conditions or parameters were provided. In this study, selected compounds were further tested for cytotoxicity against HepG2 cells as previously described. Briefly, cells were exposed to two-fold serial dilutions of compounds for 48 hours and cytotoxicity was assessed using the AlamarBlue® viability assay (Thermo Fisher Scientific, Waltham, MA). Each dilution was assayed in quadruplicate and concentrations causing 50% growth inhibition (CC50) were calculated by non-linear regression using GraphPad Prism 7 software (GraphPad Software, San Diego, CA).

[4] = tested on: C. parvum (UGA1 Nluc expressing strain in HCT-8 cells); assay: microbe, parasite or virus in culture; type: cell-based, Cryptosporidium parvum; conditions: initial Pathogen Box screen, single concentration 10 µM, inhibition compared to DMSO wells
In short: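 Parasite growth quantified by NanoLuc luminescence from lysed infected HCT-8 cells, with EC50 fitted from dose curves. Compounds, single-dose 10 μM or serially diluted, were added to confluent 48 h monolayers before infection with bleached UGA1 Nluc oocysts.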

With `O=C(Nc1ccc(C(F)(F)F)c(C(F)(F)F)c1)c1cc(Cl)ccc1O` [MMV687807] the “Toxicity to HCT-8 host cells in the C. parvum assay” value (HCT-8 host cells) was “too toxic to the HCT-8 host cells”, the “Giardia (16 uM) Mean % inhibition” value ([1]; initial Pathogen Box screen, single concentration 16 µM, inhibition compared to DMSO wells) was 97% and the EC50 ([1]; luciferase expressing G. lamblia trophozoites, 24 hours, D-luciferin bioluminescence read-out, read-out: G. lamblia EC50) was 510 ± 60 nM. The CC50 (HepG2 cells [2]) was 700 nM, the CC50 (HepG2 cells [3]) was less than 5000 nM and the “Crypto (10 uM) Mean % inhibition” value [4] was 90%.
